Several values for one entry are separate records, joined by “and”; a condition that tells them apart may be missing. Equal values may be shown once. Toxic doses and inconclusive results are not listed.
Tested on: P388 leukemia ip, CD2F1 mice, survival T/C
Test: NCI In Vivo Anticancer Drug Screen. Data for tumor model P388 Leukemia (intraperitoneal) in CD2F1 (CDF1) mice
Conditions: endpoint: median survival time, higher = longer survival
Outline: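 Mice carrying the transplanted tumor received test compound or vehicle. Survival was recorded in each group, and the value is the treated-group measurement divided by that of the vehicle-treated control group.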

[1] = dose: 50.0 mg/kg/injection, schedule: Q01DX005 (ip), vehicle: Klucel (hydroxypropylcellulose) (HPC)
[2] = dose: 100.0 mg/kg/injection, schedule: Q01DX005 (ip), vehicle: Klucel (hydroxypropylcellulose) (HPC)
[3] = dose: 60.0 mg/kg/injection, schedule: Q01DX005 (ip), vehicle: Klucel (hydroxypropylcellulose) (HPC)
[4] = dose: 120.0 mg/kg/injection, schedule: Q01DX005 (ip), vehicle: Klucel (hydroxypropylcellulose) (HPC)
[5] = dose: 50.0 mg/kg/injection, schedule: Q01DX009 (ip), vehicle: Klucel (hydroxypropylcellulose) (HPC)
[6] = dose: 50.0 mg/kg/injection, schedule: Q01DX009 (ip), vehicle: saline
[7] = dose: 100.0 mg/kg/injection, schedule: Q01DX009 (ip), vehicle: saline

## O=C(/C=C/c1ccccc1)C/C(=N/O)C(=O)NO
dose: 60.0 mg/kg/injection, schedule: Q01DX005 (ip), vehicle: saline
  T/C: 104 % of control
dose: 120.0 mg/kg/injection, schedule: Q01DX005 (ip), vehicle: saline
  T/C: 101 % of control
dose: 240.0 mg/kg/injection, schedule: Q01DX005 (ip), vehicle: saline
  T/C: 103 % of control

## [CH3][Sn]([CH3])([S]P(=S)(c1ccccc1)c1ccccc1)[S]P(=S)(c1ccccc1)c1ccccc1
[1]
  T/C: 118 % of control
[2]
  T/C: 117 % of control

## NC(=S)n1nc(-c2cccs2)c(N=Nc2ccc(Cl)cc2)c1C(F)(F)F
[3]
  T/C: 87 % of control
[4]
  T/C: 93 % of control

## Cc1ccc(S(=O)(=O)C(CCC(=O)c2ccccc2)(CCC(=O)c2ccccc2)[N+](=O)[O-])cc1
[1]
  T/C: 91 % of control
[2]
  T/C: 92 % of control
dose: 200.0 mg/kg/injection, schedule: Q01DX005 (ip), vehicle: Klucel (hydroxypropylcellulose) (HPC)
  T/C: 87 % of control

## C=CCOc1cc2c(cc1Cc1ccc3c(c1)OCO3)OCO2
dose: 50.0 mg/kg/injection, schedule: Q01DX005 (ip), vehicle: saline with Tween-80
  T/C: 100 % of control
dose: 100.0 mg/kg/injection, schedule: Q01DX005 (ip), vehicle: saline with Tween-80
  T/C: 100 % of control
dose: 200.0 mg/kg/injection, schedule: Q01DX005 (ip), vehicle: saline with Tween-80
  T/C: 103 % of control

## CCOC(=O)c1nnn(-c2cncc(-n3nnc(C(=O)OCC)c3C(=O)OCC)n2)c1C(=O)OCC
[3]
  T/C: 98 % of control
[4]
  T/C: 102 % of control
dose: 240.0 mg/kg/injection, schedule: Q01DX005 (ip), vehicle: Klucel (hydroxypropylcellulose) (HPC)
  T/C: 103 % of control

## CC(C)[NH-].CC(C)[NH-].[Cl][Pt+2]([Cl])([Cl])[Cl]
dose: 22.0 mg/kg/injection, schedule: Q01DX009 (ip), vehicle: saline with Tween-80
  T/C: 155 % of control
dose: 33.0 mg/kg/injection, schedule: Q01DX009 (ip), vehicle: saline with Tween-80
  T/C: 165 % of control
dose: 50.0 mg/kg/injection, schedule: Q01DX009 (ip), vehicle: saline with Tween-80
  T/C: 152 % of control

## CCc1ccccc1NC1=C(Cl)C(=O)c2ccccc2C1=O
dose: 60.0 mg/kg/injection, schedule: Q01DX005 (ip), vehicle: saline with Tween-80
  T/C: 104 % of control
dose: 120.0 mg/kg/injection, schedule: Q01DX005 (ip), vehicle: saline with Tween-80
  T/C: 107 % of control

## Oc1cc(O)c(-c2c(O)cc(O)cc2O)c(O)c1 (tested in a mixture with another compound)
dose: 1.56 mg/kg/injection, schedule: Q01DX005 (ip), vehicle: saline
  T/C: 97 % of control
dose: 3.12 mg/kg/injection, schedule: Q01DX005 (ip), vehicle: saline
  T/C: 106 % of control
dose: 6.25 mg/kg/injection, schedule: Q01DX005 (ip), vehicle: saline
  T/C: 111 % of control
dose: 12.5 mg/kg/injection, schedule: Q01DX005 (ip), vehicle: saline
  T/C: 101 % of control
dose: 25.0 mg/kg/injection, schedule: Q01DX005 (ip), vehicle: saline
  T/C: 96 % of control
dose: 50.0 mg/kg/injection, schedule: Q01DX005 (ip), vehicle: saline
  T/C: 108 % of control

## Fc1ccc(CSC(=S)Nc2ccc(F)c(F)c2)cc1
[5]
  T/C: 111 % of control
[6]
  T/C: 87 % of control
[7]
  T/C: 107 % of control
dose: 200.0 mg/kg/injection, schedule: Q01DX009 (ip), vehicle: saline
  T/C: 108 % of control

## COc1nccn2c(C)nnc12
dose: 100.0 mg/kg/injection, schedule: Q01DX001 (ip), vehicle: Klucel (hydroxypropylcellulose) (HPC)
  T/C: 100 % of control
dose: 200.0 mg/kg/injection, schedule: Q01DX001 (ip), vehicle: Klucel (hydroxypropylcellulose) (HPC)
  T/C: 100 % of control

## N#CC1CCCC[N-]1.[NH-]CC[N-]CC[NH-].[Pt+4] (centres undefined)
dose: 6.25 mg/kg/injection, schedule: Q01DX009 (ip), vehicle: saline
  T/C: 93 % of control
dose: 12.5 mg/kg/injection, schedule: Q01DX009 (ip), vehicle: saline
  T/C: 97 % of control
dose: 25.0 mg/kg/injection, schedule: Q01DX009 (ip), vehicle: saline
  T/C: 100 % of control
[6]
  T/C: 97 % of control
[7]
  T/C: 89 % of control

## CCCCCCCCCC(=O)Oc1cccc2c1CC(C[Se]c1ccccc1)C(=O)O2 (centres undefined)
dose: 1.88 mg/kg/injection, schedule: Q01DX005 (ip), vehicle: saline with Tween-80
  T/C: 97 % of control
dose: 3.75 mg/kg/injection, schedule: Q01DX005 (ip), vehicle: saline with Tween-80
  T/C: 101 % of control
dose: 7.5 mg/kg/injection, schedule: Q01DX005 (ip), vehicle: saline with Tween-80
  T/C: 89 % of control and 91 % of control

## COc1cc2c(cc1OC)C1CC(=O)C(CC(C)C)CN1CC2 (centres undefined)
dose: 12.5 mg/kg/injection, schedule: Q01DX009 (ip), vehicle: Klucel (hydroxypropylcellulose) (HPC)
  T/C: 100 % of control
dose: 25.0 mg/kg/injection, schedule: Q01DX009 (ip), vehicle: Klucel (hydroxypropylcellulose) (HPC)
  T/C: 100 % of control
[5]
  T/C: 103 % of control

Source: PubChem BioAssay AID330 (DTP/NCI, 2004)
